{"source": "patent US8716285B2", "about": "“N-hydroxy-benzamids for the treatment of cancer” (Hoffmann-La Roche Inc., priority 2010, dated 2014)", "system": "RPMI-8226 cells", "assay": "Growth inhibitory synergy with Velcade, WST/CCK-8 assay", "format": "cell-based", "conditions": "72 h", "description": "Cells were seeded in 96-well culture plates (200 μl/well at different seeding concentrations depending on cell type) and incubated overnight at 37° C. in 5% CO2. After adding compound dilutions to the cells (DMSO concentration kept below 0.5%), the cells were incubated at 37° C. in 5% CO2 for 72 hours. The effects on proliferation were determined by addition of CCK-8 reagent (Dojindo) according to the manufacturer's instruction, followed by incubation for 2 hours at 37° C. in 5% CO2, and finally recording the absorbance at 450 nm using an ELISA plate reader.\nNovel compounds were tested for their synergistic effect with Velcade in multiple myeloma cells in vitro. Briefly, the multiple myeloma cells (RPMI-8226, OPM-2, or NCI-H929) were seeded into 96 well plate at 18000-20000 cells per well. The GI50s of these compounds against myeloma cells were measured by WST assay. […] The tested compound and Velcade used the same dilution factor in the combination treatment. […] After 72 h treatment, cell viability was measured at 450 nm by SpectraMAX190 after 2 h incubation with CCK8 reagent at 37° C. Synergy between the tested compounds and velcade was analyzed by software Calcusyn. […]\nNotes: Chou and Talalay in 1983 proposed the designation of CI (combination index)=1 as the additive effect. […] It can be calculated by the equation above. […]", "data": [{"smiles": "O=C(NO)c1ccc2c(c1)CC(Nc1nccc(-c3cccnc3)n1)CC2", "note": "(stereo not shown) [Example 24, 7-(4-Pyridin-3-yl-pyrimidin-2-ylamino)-5,6,7,8-tetrahydro-naphthalene-2-carboxylic acid hydroxyamide]", "values": [{"measurement": "synergy with Velcade in cell growth inhibition", "value": "synergized with Velcade"}]}]}
